{"source": "ChEMBL document CHEMBL1781873", "about": "“Synthesis and antibacterial property of pyrrolopyrano quinolinones and pyrroloquinolines” (2011)", "key": {"Klebsiella pneumoniae [1]": {"system": "Klebsiella pneumoniae", "assay": "Antibacterial activity against Klebsiella pneumoniae after 18 to 20 hrs by broth micro dilution assay", "assay_type": "functional"}, "Klebsiella pneumoniae [2]": {"system": "Klebsiella pneumoniae", "assay": "Antibacterial activity against Klebsiella pneumoniae at 25 ug after 24 hrs by disc diffusion assay", "assay_type": "functional", "conditions": "read-out: IZ"}, "Staphylococcus aureus [3]": {"system": "Staphylococcus aureus", "assay": "Antibacterial activity against Staphylococcus aureus at 15 ug after 24 hrs by disc diffusion assay", "assay_type": "functional", "conditions": "read-out: IZ"}, "Bacillus subtilis [4]": {"system": "Bacillus subtilis", "assay": "Antibacterial activity against Bacillus subtilis at 10 ug after 24 hrs by disc diffusion assay", "assay_type": "functional", "conditions": "read-out: IZ"}, "Pseudomonas aeruginosa [5]": {"system": "Pseudomonas aeruginosa", "assay": "Antibacterial activity against Pseudomonas aeruginosa at 25 ug after 24 hrs by disc diffusion assay", "assay_type": "functional", "conditions": "read-out: IZ"}, "Bacillus subtilis [6]": {"system": "Bacillus subtilis", "assay": "Antibacterial activity against Bacillus subtilis at 25 ug after 24 hrs by disc diffusion assay", "assay_type": "functional", "conditions": "read-out: IZ"}, "Escherichia coli [7]": {"system": "Escherichia coli", "assay": "Inhibition of DNA gyrase mRNA expression in Escherichia coli measured up to 24 hrs by RT-PCR", "assay_type": "functional, organism-based"}, "Pseudomonas aeruginosa [8]": {"system": "Pseudomonas aeruginosa", "assay": "Antibacterial activity against Pseudomonas aeruginosa at 20 ug after 24 hrs by disc diffusion assay", "assay_type": "functional", "conditions": "read-out: IZ"}, "Staphylococcus aureus [9]": {"system": "Staphylococcus aureus", "assay": "Antibacterial activity against Staphylococcus aureus at 5 ug after 24 hrs by disc diffusion assay", "assay_type": "functional", "conditions": "read-out: IZ"}, "Salmonella typhi [10]": {"system": "Salmonella typhi", "assay": "Antibacterial activity against Salmonella typhi at 20 ug after 24 hrs by disc diffusion assay", "assay_type": "functional, Salmonella enterica subsp. enterica serovar Typhi", "conditions": "Salmonella enterica, read-out: IZ"}, "Bacillus subtilis [11]": {"system": "Bacillus subtilis", "assay": "Antibacterial activity against Bacillus subtilis at 20 ug after 24 hrs by disc diffusion assay", "assay_type": "functional", "conditions": "read-out: IZ"}, "Salmonella typhi [12]": {"system": "Salmonella typhi", "assay": "Antibacterial activity against Salmonella typhi at 10 ug after 24 hrs by disc diffusion assay", "assay_type": "functional, Salmonella enterica subsp. enterica serovar Typhi", "conditions": "Salmonella enterica, read-out: IZ"}, "Bacillus subtilis [13]": {"system": "Bacillus subtilis", "assay": "Antibacterial activity against Bacillus subtilis after 18 to 20 hrs by broth micro dilution assay", "assay_type": "functional"}, "Bacillus subtilis [14]": {"system": "Bacillus subtilis", "assay": "Antibacterial activity against Bacillus subtilis at 15 ug after 24 hrs by disc diffusion assay", "assay_type": "functional", "conditions": "read-out: IZ"}, "Salmonella typhi [15]": {"system": "Salmonella typhi", "assay": "Antibacterial activity against Salmonella typhi at 25 ug after 24 hrs by disc diffusion assay", "assay_type": "functional, Salmonella enterica subsp. enterica serovar Typhi", "conditions": "Salmonella enterica, read-out: IZ"}, "Pseudomonas aeruginosa [16]": {"system": "Pseudomonas aeruginosa", "assay": "Antibacterial activity against Pseudomonas aeruginosa at 15 ug after 24 hrs by disc diffusion assay", "assay_type": "functional", "conditions": "read-out: IZ"}, "Escherichia coli [17]": {"system": "Escherichia coli", "assay": "Antibacterial activity against Escherichia coli at 15 ug after 24 hrs by disc diffusion assay", "assay_type": "functional", "conditions": "read-out: IZ"}, "Klebsiella pneumoniae [18]": {"system": "Klebsiella pneumoniae", "assay": "Antibacterial activity against Klebsiella pneumoniae at 15 ug after 24 hrs by disc diffusion assay", "assay_type": "functional", "conditions": "read-out: IZ"}, "Salmonella typhi [19]": {"system": "Salmonella typhi", "assay": "Antibacterial activity against Salmonella typhi at 15 ug after 24 hrs by disc diffusion assay", "assay_type": "functional, Salmonella enterica subsp. enterica serovar Typhi", "conditions": "Salmonella enterica, read-out: IZ"}, "Escherichia coli [20]": {"system": "Escherichia coli", "assay": "Antibacterial activity against Escherichia coli at 5 ug after 24 hrs by disc diffusion assay", "assay_type": "functional", "conditions": "read-out: IZ"}, "Staphylococcus aureus [21]": {"system": "Staphylococcus aureus", "assay": "Antibacterial activity against Staphylococcus aureus after 18 to 20 hrs by broth micro dilution assay", "assay_type": "functional"}, "Pseudomonas aeruginosa [22]": {"system": "Pseudomonas aeruginosa", "assay": "Antibacterial activity against Pseudomonas aeruginosa after 18 to 20 hrs by broth micro dilution assay", "assay_type": "functional"}, "Salmonella typhi [23]": {"system": "Salmonella typhi", "assay": "Antibacterial activity against Salmonella typhi after 18 to 20 hrs by broth micro dilution assay", "assay_type": "functional, Salmonella enterica subsp. enterica serovar Typhi", "conditions": "Salmonella enterica"}, "Klebsiella pneumoniae [24]": {"system": "Klebsiella pneumoniae", "assay": "Antibacterial activity against Klebsiella pneumoniae at 10 ug after 24 hrs by disc diffusion assay", "assay_type": "functional", "conditions": "read-out: IZ"}, "Staphylococcus aureus [25]": {"system": "Staphylococcus aureus", "assay": "Antibacterial activity against Staphylococcus aureus at 10 ug after 24 hrs by disc diffusion assay", "assay_type": "functional", "conditions": "read-out: IZ"}, "Klebsiella pneumoniae [26]": {"system": "Klebsiella pneumoniae", "assay": "Antibacterial activity against Klebsiella pneumoniae at 20 ug after 24 hrs by disc diffusion assay", "assay_type": "functional", "conditions": "read-out: IZ"}, "Escherichia coli [27]": {"system": "Escherichia coli", "assay": "Inhibition of Escherichia coli DNA gyrase assessed as inhibition of DNA supercoiling activity using pBR322 DNA as substrate at […] after 3 hrs by agarose gel electrophoresis"}, "Klebsiella pneumoniae [28]": {"system": "Klebsiella pneumoniae", "assay": "Antibacterial activity against Klebsiella pneumoniae at 5 ug after 24 hrs by disc diffusion assay", "assay_type": "functional", "conditions": "read-out: IZ"}, "Pseudomonas aeruginosa [29]": {"system": "Pseudomonas aeruginosa", "assay": "Antibacterial activity against Pseudomonas aeruginosa at 5 ug after 24 hrs by disc diffusion assay", "assay_type": "functional", "conditions": "read-out: IZ"}, "Pseudomonas aeruginosa [30]": {"system": "Pseudomonas aeruginosa", "assay": "Antibacterial activity against Pseudomonas aeruginosa at 10 ug after 24 hrs by disc diffusion assay", "assay_type": "functional", "conditions": "read-out: IZ"}, "Salmonella typhi [31]": {"system": "Salmonella typhi", "assay": "Antibacterial activity against Salmonella typhi at 5 ug after 24 hrs by disc diffusion assay", "assay_type": "functional, Salmonella enterica subsp. enterica serovar Typhi", "conditions": "Salmonella enterica, read-out: IZ"}, "Escherichia coli [32]": {"system": "Escherichia coli", "assay": "Inhibition of Escherichia coli DNA gyrase -mediated DNA relaxation using pBR322 DNA as substrate at […] after 1 hrs by agarose gel electrophoresis"}, "Escherichia coli [33]": {"system": "Escherichia coli", "assay": "Antibacterial activity against Escherichia coli at 20 ug after 24 hrs by disc diffusion assay", "assay_type": "functional", "conditions": "read-out: IZ"}, "Escherichia coli [34]": {"system": "Escherichia coli", "assay": "Antibacterial activity against Escherichia coli at 10 ug after 24 hrs by disc diffusion assay", "assay_type": "functional", "conditions": "read-out: IZ"}, "Staphylococcus aureus [35]": {"system": "Staphylococcus aureus", "assay": "Antibacterial activity against Staphylococcus aureus at 20 ug after 24 hrs by disc diffusion assay", "assay_type": "functional", "conditions": "read-out: IZ"}, "Escherichia coli [36]": {"system": "Escherichia coli", "assay": "Antibacterial activity against Escherichia coli after 18 to 20 hrs by broth micro dilution assay", "assay_type": "functional"}, "Escherichia coli [37]": {"system": "Escherichia coli", "assay": "Antibacterial activity against Escherichia coli at 25 ug after 24 hrs by disc diffusion assay", "assay_type": "functional", "conditions": "read-out: IZ"}, "Staphylococcus aureus [38]": {"system": "Staphylococcus aureus", "assay": "Antibacterial activity against Staphylococcus aureus at 25 ug after 24 hrs by disc diffusion assay", "assay_type": "functional", "conditions": "read-out: IZ"}}, "note": "Calls of active or inactive are those of the source. No cut-off for these calls is given here.", "data": [{"compound": "CCC1[C@H]2c3c(n(C)c4ccccc4c3=O)OC(C)(C)[C@@H]2CN1OS(=O)(=O)c1ccc(C)cc1", "note": "(mixture of isomers)", "values": [{"measurement": "MIC50", "setting": "Klebsiella pneumoniae [1]", "value": 0.5, "unit": "µg/mL"}, {"measurement": "MIC90", "setting": "Klebsiella pneumoniae [1]", "value": 0.5, "unit": "µg/mL"}, {"measurement": "zone of inhibition at 25 µg/disc", "setting": "Klebsiella pneumoniae [2]", "value": 26, "unit": "mm"}, {"measurement": "zone of inhibition at 15 µg/disc", "setting": "Staphylococcus aureus [3]", "value": 26, "unit": "mm"}, {"measurement": "zone of inhibition at 10 µg/disc", "setting": "Bacillus subtilis [4]", "value": 8, "unit": "mm"}, {"measurement": "zone of inhibition at 25 µg/disc", "setting": "Pseudomonas aeruginosa [5]", "value": 36, "unit": "mm"}, {"measurement": "zone of inhibition at 25 µg/disc", "setting": "Bacillus subtilis [6]", "value": 11, "unit": "mm"}, {"measurement": "inhibition of gyrase mRNA expression (active/not active)", "setting": "Escherichia coli [7]", "value": "inactive"}, {"measurement": "zone of inhibition at 20 µg/disc", "setting": "Pseudomonas aeruginosa [8]", "value": 34, "unit": "mm"}, {"measurement": "zone of inhibition at 5 µg/disc", "setting": "Staphylococcus aureus [9]", "value": 20, "unit": "mm"}, {"measurement": "zone of inhibition at 20 µg/disc", "setting": "Salmonella typhi [10]", "value": 22, "unit": "mm"}, {"measurement": "zone of inhibition at 20 µg/disc", "setting": "Bacillus subtilis [11]", "value": 10, "unit": "mm"}, {"measurement": "zone of inhibition at 10 µg/disc", "setting": "Salmonella typhi [12]", "value": 16, "unit": "mm"}, {"measurement": "MIC50", "setting": "Bacillus subtilis [13]", "value": 0.5, "unit": "µg/mL"}, {"measurement": "MIC90", "setting": "Bacillus subtilis [13]", "value": 0.5, "unit": "µg/mL"}, {"measurement": "zone of inhibition at 15 µg/disc", "setting": "Bacillus subtilis [14]", "value": 9, "unit": "mm"}, {"measurement": "zone of inhibition at 25 µg/disc", "setting": "Salmonella typhi [15]", "value": 24, "unit": "mm"}, {"measurement": "zone of inhibition at 15 µg/disc", "setting": "Pseudomonas aeruginosa [16]", "value": 28, "unit": "mm"}, {"measurement": "zone of inhibition at 15 µg/disc", "setting": "Escherichia coli [17]", "value": 16, "unit": "mm"}, {"measurement": "zone of inhibition at 15 µg/disc", "setting": "Klebsiella pneumoniae [18]", "value": 16, "unit": "mm"}, {"measurement": "zone of inhibition at 15 µg/disc", "setting": "Salmonella typhi [19]", "value": 18, "unit": "mm"}, {"measurement": "zone of inhibition at 5 µg/disc", "setting": "Escherichia coli [20]", "value": 12, "unit": "mm"}, {"measurement": "MIC50", "setting": "Staphylococcus aureus [21]", "value": 0.5, "unit": "µg/mL"}, {"measurement": "MIC90", "setting": "Staphylococcus aureus [21]", "value": 0.5, "unit": "µg/mL"}, {"measurement": "MIC50", "setting": "Pseudomonas aeruginosa [22]", "value": 0.5, "unit": "µg/mL"}, {"measurement": "MIC90", "setting": "Pseudomonas aeruginosa [22]", "value": 0.5, "unit": "µg/mL"}, {"measurement": "MIC50", "setting": "Salmonella typhi [23]", "value": 0.5, "unit": "µg/mL"}, {"measurement": "MIC90", "setting": "Salmonella typhi [23]", "value": 0.5, "unit": "µg/mL"}, {"measurement": "zone of inhibition at 10 µg/disc", "setting": "Klebsiella pneumoniae [24]", "value": 14, "unit": "mm"}, {"measurement": "zone of inhibition at 10 µg/disc", "setting": "Staphylococcus aureus [25]", "value": 24, "unit": "mm"}, {"measurement": "zone of inhibition at 20 µg/disc", "setting": "Klebsiella pneumoniae [26]", "value": 24, "unit": "mm"}, {"measurement": "DNA gyrase inhibition (active/inactive)", "setting": "Escherichia coli [27]", "value": "Active"}, {"measurement": "zone of inhibition at 5 µg/disc", "setting": "Klebsiella pneumoniae [28]", "value": 10, "unit": "mm"}, {"measurement": "zone of inhibition at 5 µg/disc", "setting": "Pseudomonas aeruginosa [29]", "value": 24, "unit": "mm"}, {"measurement": "zone of inhibition at 10 µg/disc", "setting": "Pseudomonas aeruginosa [30]", "value": 26, "unit": "mm"}, {"measurement": "zone of inhibition at 5 µg/disc", "setting": "Salmonella typhi [31]", "value": 10, "unit": "mm"}, {"measurement": "inhibition", "setting": "Escherichia coli [32]", "value": "Active"}, {"measurement": "zone of inhibition at 20 µg/disc", "setting": "Escherichia coli [33]", "value": 22, "unit": "mm"}, {"measurement": "zone of inhibition at 10 µg/disc", "setting": "Escherichia coli [34]", "value": 14, "unit": "mm"}, {"measurement": "zone of inhibition at 20 µg/disc", "setting": "Staphylococcus aureus [35]", "value": 30, "unit": "mm"}, {"measurement": "MIC50", "setting": "Escherichia coli [36]", "value": 0.5, "unit": "µg/mL"}, {"measurement": "MIC90", "setting": "Escherichia coli [36]", "value": 0.5, "unit": "µg/mL"}, {"measurement": "zone of inhibition at 25 µg/disc", "setting": "Escherichia coli [37]", "value": 23, "unit": "mm"}, {"measurement": "zone of inhibition at 25 µg/disc", "setting": "Staphylococcus aureus [38]", "value": 36, "unit": "mm"}]}]}
